Assay results: patent US20200282003A1, “MITOCHONDRIAL-TARGETED AN[…] AGAINST MECHANICAL VENTILATION-INDUCED DIAPHRAGM DYSFUNCTION AND SKELETAL MUSCLE ATROPHY” (Cornell University, priority 2010, published 2020)
Square brackets hold non-standard residues; d marks the D form. Peptide text beside a SMILES is read from it. Dmt = Cc1cc(O)cc(C)c1C[C@H](N)C(=O)O

Legend:
[1] = test system: several mammalian cell types; details: energy-independent manner; cited from earlier work
[2] = mean ± SEM
Excerpt: To analyze mitochondrial ROS emissions following MV-induced diaphragmatic oxidative stress and weakness, rats were randomly assigned to one of three experimental groups (n=12/group): (1) an acutely anesthetized control group; (2) a 12-hour MV group (MV); and 3) a 12-hour MV group treated with the mitochondrial-targeted antioxidant SS-31 (MVSS). Because of the large tissue requirement for our numerous dependent measures, six animals from each experimental group were used for the mitochondrial measures and the remaining six animals in each group were employed in all other biochemical assays.
Animals in the control group were acutely anesthetized with an intraperitoneal (IP) injection of sodium pentobarbital (60 mg/kg body weight). […] The mitochondrial-targeted antioxidant SS-31 was dissolved in saline and delivered in a bolus (loading) dose (3 mg/kg; subcutaneous injection) 15 min prior to initiation of MV. A constant intravenous infusion (0.05 mg/kg/hr) of SS-31 was maintained throughout MV.
All surgical procedures were performed using aseptic techniques. Animals in the MV groups were anesthetized with an IP injection of sodium pentobarbital (60 mg/kg body weight), tracheostomized, and mechanically ventilated with a pressure-controlled ventilator (Servo Ventilator 300, Siemens) for 12 hours with the following settings: upper airway pressure limit: 20 cm H2O, typical pressure generation above PEEP was 6-9 cm H2O, respiratory rate: 80 bpm; and PEEP: 1 cm H2O.
The carotid artery was cannulated to permit the continuous measurement of blood pressure and the collection of blood during the protocol. Arterial blood samples (100 μl per sample) were removed periodically and analyzed for arterial pO2, pCO2 and pH using an electronic blood-gas analyzer (GEM Premier 3000; Instrumentation Laboratory, Lexington, Mass.). Ventilator adjustments were made if arterial PCO2 exceeded 40 mm Hg. Arterial PO2 was maintained >60 mmHg throughout the experiment by increasing the FIO2 (22-26% oxygen).
A venous catheter was inserted into the jugular vein for continuous infusion of sodium pentobarbital (˜10 mg/kg/hr) and fluid replacement. Body temperature was maintained at 37° C. by use of a recirculating heating blanket and heart rate was monitored via a lead II electrocardiograph. Continuous care during the MV protocol included lubricating the eyes, expressing the bladder, removing airway mucus, rotating the animal, and passively moving the limbs. Animals also received an intramuscular injection of glycopyrrolate (0.18 mg/kg) every two hours during MV to reduce airway secretions.

[3] = rats at completion of 12 h MV with SS-31

Compound	Penetration of the plasma membrane [1]	Arterial PCO2 [2, 3]	Arterial PO2 [2, 3] [mm/Hg]	Arterial pH [2, 3]	Systolic blood pressure [2, 3] [mm/Hg]	Heart rate ([2]; rats at completion of 12 h MV, SS-31 3 mg/kg s.c. bolus + 0.05 mg/kg/hr i.v.) [beats/min]
2′,6′-Dmt-D-Arg-Phe-Lys-NH2 [SS-02]	readily penetrates	–	–	–	–	–
Cc1cc(O)cc(C)c1C[C@H](NC(=O)[C@H](N)CCCNC(=N)N)C(=O)N[C@@H](CCCCN)C(=O)N[C@@H](Cc1ccccc1)C(N)=O [SS-31, D-Arg-2′,6′-Dmt-Lys-Phe-NH2] (H-[dR][Dmt]KF-NH2)	–	46 ± 1	75 ± 5	7.41 ± 0.01	108 ± 5	347 ± 7
